The record followed here is US20110313677A1, “METHOD FOR DETERMINING THE LIVER PERFORMANCE OF A LIVING ORGANISM BY THE MEANS OF QUANTITATIVE MEASURING THE METABOLIZATION OF SUBSTRATES” (HUMEDICS GMBH, priority 2009, published 2011).

Series [1] concerns the target T1, CYP1A2 (Homo sapiens, UniProt P05177).
T1 construct: follow directly and immediately the metabolization of the administered substrate by the enzymes present in the liver; from tissue; host or cells: liver of the living human subject (in vivo)
T1 sequence (P05177 1-516): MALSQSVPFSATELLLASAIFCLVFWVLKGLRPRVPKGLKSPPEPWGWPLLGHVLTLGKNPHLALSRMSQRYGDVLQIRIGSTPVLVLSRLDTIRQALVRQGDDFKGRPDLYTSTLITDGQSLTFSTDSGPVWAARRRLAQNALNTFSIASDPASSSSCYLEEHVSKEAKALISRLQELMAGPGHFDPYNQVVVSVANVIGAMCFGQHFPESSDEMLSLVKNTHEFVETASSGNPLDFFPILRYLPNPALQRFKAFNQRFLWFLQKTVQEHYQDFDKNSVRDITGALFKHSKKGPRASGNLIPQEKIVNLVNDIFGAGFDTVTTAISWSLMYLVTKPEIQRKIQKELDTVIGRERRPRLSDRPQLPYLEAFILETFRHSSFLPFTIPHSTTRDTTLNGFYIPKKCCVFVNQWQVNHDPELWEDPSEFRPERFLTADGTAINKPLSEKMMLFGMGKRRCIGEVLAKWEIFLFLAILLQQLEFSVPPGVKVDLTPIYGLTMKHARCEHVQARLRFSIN
The experiment in a line: breath test: 13CO2 increase in exhalation air after intravenous 13C methacetin (DOB slope kinetics, LiMAx). It is filed as in vivo. The text has this:
Thereby, the method according to an aspect of the invention comprises the steps of administering at least one ^13C labelled substrate, which is converted by the liver by releasing at least one ^13C labelled metabolization product, in particular ^13CO2 and the step of determining the amount of the at least one formed ^13C labelled metabolization product, in particular of the ^13CO2 amount, in the exhalation air over a definite time interval by the means of at least one measuring device with at least one evaluation unit. In an embodiment, the amount of the formed ^13C labelled metabolization product, in particular of ^13CO2 in the exhalation air, is proportional to the amount of the at least one administered substrate. The method according to an aspect of the invention is characterized in that it is now possible based on the determined measure points to describe the measured initial increase of the amount of the at least one ^13C labelled metabolization product, in particular of the ^13CO2 amount, in the exhalation air by the means of a differential equation of first order. Based on the solution of this differential equation of first order subsequently a maximum value Amax (also designated as DOBmax, whereby DOB stands for “delta over baseline”) and a time constant tau of the increase of the amount of the ^13C labelled metabolization product, in particular of the ^13CO2 amount, are determined.
wherein (t) stands for the metabolization dynamic of the at least one substrate, t for the measuring time, t0 for the start of the metabolization, tau for the time constant of the conversion and Amax for the maximum amplitude of the fitted function or the maximum concentration of the metabolization product and A0 for the initial concentration of the metabolization product. Therefore, a determination of Amax and the time constant tau is possible based on the above equation.
wherein RPDB corresponds to the value 0,011237 (Pee-Dee-Belemnite-standard of the ^13CO2/^12CO2-ratio), P to the CO2 production rate, M to the molar mass of the administered substance and BW to the body weight of the person.
In an embodiment of the present method the determination of the liver performance of a human occurs according to a scheme as shown in FIG. 2. During this measurement course the metabolization is started by the intravenous administering of the substrate to be metabolized, in particular ^13C methacetin 1 in combination with an isotonic sodium chloride solution 1a.
Beside an enzymatic activation of the substrate in particular by the P450 oxygenases also a release or activation of the substrate by the means of radiation or other fast processes is conceivable. The released metabolization product for instance ^13CO2 is transported via the blood into the lung and is there exhaled. The exhalation air is continuously transported into the measuring device 2, e.g., via a breathing mask and a connecting tube and is analyzed by the means of a computer 3 (Stockmann et al., Annals of Surgery, 2009, 250: col. 119-125). A measuring device suitable for the present method is for instance described in WO 2007/107366 A1.
Due to the specific measuring device being applied it is possible to follow the metabolization of the substrate in each breath in real time. This is emphasized in FIG. 3. […] Thereby 1 DOB indicates a change of the ^13CO2 to ^12CO2 ratio at about thousandth part over the natural ratio. As described before, Amax or DOBmax as well as the time constant tau are deducible from said slope. After the ^13CO2 increase has reached a maximum a decrease of the ^13CO2 concentration occurs what can be attributed to further dynamic processes in the body which contribute to the degradation of the measured signal.
described metabolization dynamics it is possible to follow directly and immediately the metabolization of the administered substrate by the enzymes present in the liver. If methacetin is administered as substrate, it is demethylated by the enzyme CYP1A2. […]

The conditions of series [2]: in vivo.
From the text: (§1) Beside or additionally to the determination of the amount of a ^13C labelled metabolization product as for instance ^13CO2 in the exhalation air for estimating the liver performance it is also conceivable to follow the concentration decrease of the dealkylated product in the blood and to deduce from the corresponding slope kinetics a time constant tau.
(§2) The concentration changes of the administered ^13C labelled substrate, for instance ^13C methacetin and of the dealkylation product formed in the liver, for instance Paracetamol, are followed by the means of a suitable analytical method, for instance HPLC. […] The initial concentration changes can also be described here with a differential equation of first order.
A short description of series [3]: concentration changes of 13C methacetin and its dealkylation product Paracetamol in the blood followed by HPLC. The conditions noted are these: FIG. 8, blood.
From the text: as §1, §2

Turning to `CC(=O)Nc1ccc(O[13CH3])cc1` [^13C methacetin, ^13C-methacetin], the “measured maximum value A of the 13CO2 increase in the breathing air” value in series [1] (FIG. 7, curve A, determined data points) was 22,01 DOB. The “time constant tau for the conversion” value in series [1] (FIG. 7, curve B, fit of the initial 13CO2 increase) was 2.42 min. Besides, the “amplitude Amax of the fitted function” value in series [1] (FIG. 7, curve B, fit with solution of a differential equation of first order) is reported as 22,09 DOB. Besides, the maximum conversion in series [1] (after the operation, residual liver volume 625 ml) stood at 169 µg/h/kg. Also, the “maximum conversion LiMAx” value in series [1] (before the liver operation, total liver volume 1450 ml) is 307 µg/h/kg; in series [1] (cirrhosis of the liver (FIG. 4b)), 307 µg/h/kg; in series [1] (corresponding to the aspired residual liver volume of 698 ml (rule of three)), 165 µg/h/kg; in series [1] (heavy liver damages (FIG. 4c)) it was 144 µg/h/kg; in series [1] (liver failure (FIG. 4d)) it was 55 µg/h/kg; in series [1] (normal liver performance (FIG. 4a)), 504 µg/h/kg. Besides, in series [2], the “initial concentration in the blood” value came out at 20 µg/mL.
`CC(=O)Nc1ccc(O)cc1` [Paracetamol]: the “time constant τ1 for the initial fast concentration increase” value in series [3] (Paracetamol formed from 13C methacetin) worked out at 1.3 min. The “time constant τ2 for the subsequent decelerated concentration increase” value in series [3] (further distribution in the blood) was 16 min.
